Earlier results, collected in patent US6610702B2, “Ammonium salts of inositol hexaphosphate, and uses thereof” (GMP Oxycell, Inc., priority 2000, dated 2003).
Read-outs that look alike come from different tables or passages of the source.

What was measured:
[1] = buffer 100 mM sodium phosphate, pH 7.0; cited from earlier work
stripped hemoglobin = stripped hemoglobin (Homo sapiens, UniProt P68871); details: pH 7.4, cited from earlier work
human RBCs = details: IHP encapsulated in human RBCs by continuous-flow electroporation; cited from earlier work
[2] = target: allosteric site on hemoglobin (Homo sapiens, UniProt P68871); details: displaces hemoglobin-bound 2,3-DPG; cited from earlier work
allosteric site on hemoglobin, sequence (P68871 2-147 limits assumed): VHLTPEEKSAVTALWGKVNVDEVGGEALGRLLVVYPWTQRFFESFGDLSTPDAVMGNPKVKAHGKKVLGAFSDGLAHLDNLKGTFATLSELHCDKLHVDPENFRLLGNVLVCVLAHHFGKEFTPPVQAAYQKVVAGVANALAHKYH
allosteric site on hemoglobin, sequence (P69905 2-142 partner limits assumed): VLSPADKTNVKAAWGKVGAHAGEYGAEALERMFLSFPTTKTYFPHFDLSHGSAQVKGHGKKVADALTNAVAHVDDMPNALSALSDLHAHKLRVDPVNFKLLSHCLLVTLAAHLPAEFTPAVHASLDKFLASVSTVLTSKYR

stripped hemoglobin, sequence (P68871 2-147 limits assumed): as the sequence (P68871 2-147 limits assumed) above
stripped hemoglobin, sequence (P69905 2-142 partner limits assumed): as the sequence (P69905 2-142 partner limits assumed) above

SMILES | Octanol/buffer partition coefficient [1] | half-saturation pressure P(O2) (½) of stripped hemoglobin (stripped hemoglobin; 25 C., stripped hemoglobin alone 4.3) | half-saturation pressure P(O2) (½) of stripped hemoglobin (stripped hemoglobin; 37 C., stripped hemoglobin alone 9.3) | P50 of modified RBCs (human RBCs) | affinity for the allosteric site relative to 2,3-DPG [2]
Cc1cn([C@H]2CC(O)[C@@H](CO)O2)c(=O)[nH]c1=O (some centres unmarked) | 0.064 | – | – | – | –
O=P(O)(O)O[C@H]1[C@H](OP(=O)(O)O)[C@@H](OP(=O)(O)O)[C@H](OP(=O)(O)O)[C@@H](OP(=O)(O)O)[C@H]1OP(=O)(O)O [IHP, inositol hexaphosphate] | – | 48.4 mm Hg | 96.4 mm Hg | approximately 50 torr | one-thousand times greater affinity
